Experiments:
serotonin transporter = molecular target: T1, serotonin transporter (Rattus norvegicus, UniProt P31652); test: 3H-paroxetine binding to rat frontal cortical membranes, affinity for the serotonin transporter; conditions: 3H-paroxetine 0.1 nM, male Sprague Dawley rat frontal cortical membranes; read-out: 5HT Uptake r5HT-T Ki (nM) (Example 18)
T1 construct: frontal cortical membranes prepared from male Sprague Dawley rats; from tissue; host or cells: rat frontal cortex membranes (male Sprague Dawley)
T1 sequence (P31652 whole entry): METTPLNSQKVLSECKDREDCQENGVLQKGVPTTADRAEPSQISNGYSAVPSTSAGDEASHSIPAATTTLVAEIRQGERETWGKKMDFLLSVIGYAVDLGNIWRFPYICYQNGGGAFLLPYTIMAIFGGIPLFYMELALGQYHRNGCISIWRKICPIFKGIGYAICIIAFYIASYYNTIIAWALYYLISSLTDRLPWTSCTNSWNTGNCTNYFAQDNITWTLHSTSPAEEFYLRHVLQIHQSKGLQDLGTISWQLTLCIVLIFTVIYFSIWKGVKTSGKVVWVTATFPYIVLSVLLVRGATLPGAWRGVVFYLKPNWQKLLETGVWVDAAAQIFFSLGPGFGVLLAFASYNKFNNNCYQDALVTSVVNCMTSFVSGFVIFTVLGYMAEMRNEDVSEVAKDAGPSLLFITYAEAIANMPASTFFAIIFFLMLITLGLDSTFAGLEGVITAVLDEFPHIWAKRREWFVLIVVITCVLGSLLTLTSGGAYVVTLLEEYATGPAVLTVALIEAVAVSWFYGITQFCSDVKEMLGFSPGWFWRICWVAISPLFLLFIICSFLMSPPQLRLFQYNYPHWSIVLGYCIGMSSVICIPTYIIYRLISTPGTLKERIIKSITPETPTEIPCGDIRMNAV
Procedure: A protocol similar to that used by Cheetham et al. (Neuropharmacol. 32:737-743, 1993) was used to determine the affinity of compounds for the serotonin transporter (i.e., by determining the relative ability of a compound to displace ^3H-paroxetine from male rat frontal cortical membranes). Briefly, frontal cortical membranes prepared from male Sprague Dawley rats were incubated with ^3H-paroxetine (0.1 nM) for 60 minutes at 25° C. All tubes also contained either vehicle, test compound (one to eight concentrations), or a saturating concentration of fluoxetine (10 μM) to define […]. All reactions were terminated by the addition of ice cold Tris buffer followed by rapid filtration using a Tom Tech filtration device to separate bound from free ^3H-paroxetine. Bound radioactivity was quantitated using a Wallac 1205 Beta Plate® counter. Nonlinear regression analysis was used to determine IC50 values which were converted to Ki values using the method of Cheng and Prusoff (Biochem. Pharmacol. 22: 3099-3108, 1973); […].
This affinity translates to the blockade of 5-HT uptake, i.e., the ability of a compound increase synaptic 5-HT levels and to act like an SSRI.

Human 5-HT1A Receptor [1] = molecular target: T2, Human 5-HT1A Receptor (Homo sapiens, UniProt P08908); test: cAMP radioimmunoassay (RIA) in human 5-HT1A receptor cell line, inhibition of forskolin stimulated cAMP; format: cell-based; conditions: forskolin (1 μM) stimulated cAMP, stably transfected CHO cells; read-out: h5HT1A cAMP EC50 (nM) (Example 19)
T2 construct: expressed in transfected cells; host or cells: CHO cells (Chinese hamster ovary), stably transfected
T2 sequence (P08908 1-422): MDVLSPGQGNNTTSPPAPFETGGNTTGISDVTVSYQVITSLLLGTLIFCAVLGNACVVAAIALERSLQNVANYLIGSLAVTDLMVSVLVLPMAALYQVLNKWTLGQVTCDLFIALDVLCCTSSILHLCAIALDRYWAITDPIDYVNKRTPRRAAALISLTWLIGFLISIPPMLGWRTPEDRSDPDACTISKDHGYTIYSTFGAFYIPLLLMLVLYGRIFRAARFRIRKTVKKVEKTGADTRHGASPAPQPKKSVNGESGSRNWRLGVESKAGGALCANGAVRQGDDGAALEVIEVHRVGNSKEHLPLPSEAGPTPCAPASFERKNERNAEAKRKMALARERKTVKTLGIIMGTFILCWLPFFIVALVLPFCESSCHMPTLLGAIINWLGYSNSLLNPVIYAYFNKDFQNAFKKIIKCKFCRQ
Procedure: Certain effects of 5-HT (e.g., certain effects mediated by the interaction of 5-HT with the 5-HT1A receptor) are mediated by cAMP. To test the ability of compounds described herein to modulate cAMP, a radioimmunoassay (RIA) method was used. Briefly, stably transfected CHO cells were grown in DMEM containing 10% heat inactivated FBS and non-essential amino acids. The cells were plated at a density of 10^6 cells per well in a 96-well plate and incubated for 2 days in a CO2 incubator. On the second day, the medium was replaced with 0.1 ml Krebs and incubated 15 minutes at 37° C. The medium was then replaced with Krebs buffer containing 500 μM isobutylmethylxanthine (IBMX) and incubated for approximately 5 minutes at 37° C. Wells were treated with forskolin (1 μM final concentration) followed immediately by test compound (0.1 and 1 μM for the initial screen) and incubated for an additional 10 minutes at 37° C. The reaction was terminated by removal of the medium and the addition of 0.5 ml ice cold assay buffer (supplied in the RIA kit). Plates were stored at −20° C. prior to assessment of cAMP formation by RIA. The cAMP kit was obtained from Amersham (Piscataway, N.J.) and the RIA was performed as per the kit instructions. In the initial screen, percent inhibition of forskolin stimulated cAMP was measured. […] These compounds behaved as either full agonists or partial agonists. 5-HT, BMY 7378, buspirone, and 8-OH-DPAT were used as reference compounds.
All compounds tested inhibited the forskolin-stimulated increase in […].

Human 5-HT1A Receptor [2] = molecular target: T2, Human 5-HT1A Receptor; test: 8-OH-DPAT binding, human 5-HT1A receptor cell line (displacement of [3H]-OHDPAT, stably transfected CHO cells); conditions: [3H]-OHDPAT 1.5 nM, read-out: h5HT1A Affinity Ki (nM) (Example 17)
Procedure: Affinity for the serotonin 5-HT1A receptor was established by testing each compound's ability to displace [^3H]-OHDPAT (dipropylaminotetralin) from the 5-HT1A serotonin receptor following a modification of the procedure of Hall et al., J. Neurochem. 44:1685-1696 (1985). Stably transfected Chinese hamster ovary (CHO) cells were plated and grown in Dulbecco's Modified Eagle's Medium (DMEM) containing 10% heat inactivated fetal bovine serum (FBS) and non-essential amino acids. Cells were scraped off the plate, transferred to centrifuge tubes, and washed twice by centrifugation (2000 rpm for 10 minutes at 4° C.) in buffer (50 mM Tris, pH 7.5). The resulting pellets were aliquoted and stored at −80° C. On the day of assay, the cells were thawed on ice, and re-suspended in buffer. The binding assay was performed in a 96-well microtiter plate in a total volume of about 250 μL. Non-specific binding was determined in the presence of 10 μM 5-HT; the final radio ligand concentration was 1.5 nM. Following a 30 minute incubation at room temperature, the reaction was terminated by the addition of ice cold buffer and rapid filtration through a GF/B filter presoaked for 30 minutes in 0.5% polyethyleneimine (PEI). Compounds were initially tested in a single point assay to determine percent inhibition at 1 μM, 0.1 μM, and 0.01 μM. Subsequently, Ki values were determined for compounds defined to be active. Percent inhibition Ki was determined by RFComp (Lundon Software, Chagrin Falls, Ohio), with serotonin and 8-OH-DPAT as the reference compounds.
High affinity for the receptor is evidence of a compound's ability to directly modulate activity at the 5-HT1A receptor.

Human 5-HT Transporter = molecular target: T3, Human 5-HT Transporter (Homo sapiens, UniProt P31645); test: Inhibition of 3H-5-HT uptake by Jar cells possessing the human 5-HT transporter; format: cell-based; conditions: Jar cells treated with staurosporine, read-out: 5HT Uptake h5HT-T IC50 (nM) (Example 20)
T3 construct: endogenous in cells; host or cells: Jar cells (human carcinoma cell line), treated with staurosporine
T3 sequence (P31645 whole entry): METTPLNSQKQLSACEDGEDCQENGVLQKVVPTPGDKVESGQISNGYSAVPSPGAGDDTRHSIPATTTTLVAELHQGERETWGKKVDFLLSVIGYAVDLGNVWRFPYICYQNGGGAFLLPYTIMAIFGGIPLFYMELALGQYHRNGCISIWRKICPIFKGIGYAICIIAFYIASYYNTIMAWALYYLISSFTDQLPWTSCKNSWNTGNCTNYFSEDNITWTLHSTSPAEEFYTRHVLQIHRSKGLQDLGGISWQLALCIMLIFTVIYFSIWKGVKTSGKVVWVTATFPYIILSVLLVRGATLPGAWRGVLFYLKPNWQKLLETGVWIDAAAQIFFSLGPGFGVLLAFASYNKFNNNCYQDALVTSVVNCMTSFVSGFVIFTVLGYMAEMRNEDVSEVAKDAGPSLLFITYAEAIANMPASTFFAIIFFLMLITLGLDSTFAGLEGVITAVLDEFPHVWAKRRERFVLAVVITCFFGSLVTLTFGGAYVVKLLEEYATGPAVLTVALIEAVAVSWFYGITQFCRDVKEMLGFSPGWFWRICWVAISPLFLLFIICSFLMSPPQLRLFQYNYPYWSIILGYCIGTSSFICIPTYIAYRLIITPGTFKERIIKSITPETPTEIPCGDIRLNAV
Procedure: [Staurosporine greatly increases the expression of the 5-HT-Transporter.] On the day of assay, vehicle, excess of fluoxetine, or test compound was added to various wells on the plate. ^3H-5-HT was then aliquoted into all wells and the samples were incubated at 37° C. for 5 minutes. The wells were then washed with ice cold 50 mM Tris HCl (pH 7.4) buffer and aspirated to remove free ^3H-5-HT. 25 μL 0.25 M NaOH was then added to each well to lyse the cells and 75 μL scintillation cocktail (Microscint™ 20) was added prior to quantitation on a Packard TopCount® machine. Tubes with vehicle represent total possible uptake, radioactivity counted in tubes with excess fluoxetine represent nonspecific binding/uptake and were subtracted from the total possible uptake to give total possible specific uptake. This nonspecific binding (usual low in number) was then subtracted from the counts obtained in wells with various test compounds (or different concentrations of a test compound) resulting in uptake in the presence of drug. Specific uptake was then expressed as a percent of control values and was analyzed using nonlinear regression analysis (Prizm) to determine IC50 values. If the compound was active in inhibiting 5-HT uptake, its counts will be close to that obtained with fluoxetine.
This blockade, in vivo, would be expected to result in an increase in extracellular 5-HT concentrations.

SMILES	Ki (serotonin transporter) [nM]	EC50 (Human 5-HT1A Receptor [1]) [nM]	Ki (Human 5-HT1A Receptor [2]) [nM]	IC50 (Human 5-HT Transporter) [nM]
Cc1ccc2c3c(ccc2n1)OC[C@H](CNCCCN1CCCc2cc(F)ccc21)O3 [Example 8, 3-(6-fluoro-3,4-dihydroquinolin-1(2H)-yl)-N-{[(2S)-8-methyl-2,3-dihydro[1,4]dioxino[2,3-f]quinolin-2-yl]methyl}propan-1-amine]	7.2	1.48	1.44	76.9
Cc1ccc2c3c(ccc2n1)OC[C@H](CNCCCN1CCOc2ccc(F)cc21)O3 [Example 11, 3-(6-fluoro-2,3-dihydro-4H-1,4-benzoxazin-4-yl)-N-{[(2S)-8-methyl-2,3-dihydro[1,4]dioxino[2,3-f]quinolin-2-yl]methyl}propan-1-amine]	14.7	1.43	2.77	4710
Cc1ccc2c3c(ccc2n1)OC[C@H](CNCCCCN1CCc2ccc(F)cc21)O3 [Example 14, 4-(6-fluoro-2,3-dihydro-1H-indol-1-yl)-N-{[(2S)-8-methyl-2,3-dihydro[1,4]dioxino[2,3-f]quinolin-2-yl]methyl}butan-1-amine]	3.3	1.66	0.19	161
Cc1ccc2c3c(ccc2n1)OC[C@H](CNCCCCN1CCCc2ccccc21)O3 [Example 15, 4-(3,4-dihydroquinolin-1(2H)-yl)-N-{[(2S)-8-methyl-2,3-dihydro[1,4]dioxino[2,3-f]quinolin-2-yl]methyl}butan-1-amine]	11.8	9.25	0.66	438

Reference: US20080139546A1, “Tetrahydroquinoline, indoline, and related aniline derivatives of heterocycle-fused benzodioxan methylamines” (Wyeth, priority 2006, published 2008)
